According to patent US20250082630A1, “METHODS OF TREATING BRAIN TUMOURS AND NEUROBLASTOMAS” (AstraZeneca AB, priority 2021, published 2025):

Legend:
PARP2 = PARP2 (Homo sapiens (Human), UniProt Q9UGN5); assay: PARP fluorescence anisotropy binding assay, PARP2
Experimental: Recombinant full length PARP2 protein was diluted to 6 nM with 50 mM Tris pH 8, 0.001% Triton X100, 10 mM MgCl2, 150 mM NaCl and incubated for four hours with an equivalent volume of 2 nM fluorescent probe diluted with 50 mM Tris pH 8, 0.001% Triton X100, 10 mM MgCl2, 150 mM NaCl. The final DMSO concentration of the probe was kept below 1% (v/v).
Fluorescence anisotropy of the probe when bound to the proteins was measured using a BMG Pherastar FSX® in the presence of test compounds or solvent control and the effect on anisotropy determined. % inhibition values for different test compound concentrations were calculated and fitted to a four parameter logistic plot in order to determine the IC50 value.

PARP1 = PARP1 (Homo sapiens (Human), UniProt P09874); assay: PARP fluorescence anisotropy binding assay, PARP1
Chain of PARP1 (P09874 whole entry): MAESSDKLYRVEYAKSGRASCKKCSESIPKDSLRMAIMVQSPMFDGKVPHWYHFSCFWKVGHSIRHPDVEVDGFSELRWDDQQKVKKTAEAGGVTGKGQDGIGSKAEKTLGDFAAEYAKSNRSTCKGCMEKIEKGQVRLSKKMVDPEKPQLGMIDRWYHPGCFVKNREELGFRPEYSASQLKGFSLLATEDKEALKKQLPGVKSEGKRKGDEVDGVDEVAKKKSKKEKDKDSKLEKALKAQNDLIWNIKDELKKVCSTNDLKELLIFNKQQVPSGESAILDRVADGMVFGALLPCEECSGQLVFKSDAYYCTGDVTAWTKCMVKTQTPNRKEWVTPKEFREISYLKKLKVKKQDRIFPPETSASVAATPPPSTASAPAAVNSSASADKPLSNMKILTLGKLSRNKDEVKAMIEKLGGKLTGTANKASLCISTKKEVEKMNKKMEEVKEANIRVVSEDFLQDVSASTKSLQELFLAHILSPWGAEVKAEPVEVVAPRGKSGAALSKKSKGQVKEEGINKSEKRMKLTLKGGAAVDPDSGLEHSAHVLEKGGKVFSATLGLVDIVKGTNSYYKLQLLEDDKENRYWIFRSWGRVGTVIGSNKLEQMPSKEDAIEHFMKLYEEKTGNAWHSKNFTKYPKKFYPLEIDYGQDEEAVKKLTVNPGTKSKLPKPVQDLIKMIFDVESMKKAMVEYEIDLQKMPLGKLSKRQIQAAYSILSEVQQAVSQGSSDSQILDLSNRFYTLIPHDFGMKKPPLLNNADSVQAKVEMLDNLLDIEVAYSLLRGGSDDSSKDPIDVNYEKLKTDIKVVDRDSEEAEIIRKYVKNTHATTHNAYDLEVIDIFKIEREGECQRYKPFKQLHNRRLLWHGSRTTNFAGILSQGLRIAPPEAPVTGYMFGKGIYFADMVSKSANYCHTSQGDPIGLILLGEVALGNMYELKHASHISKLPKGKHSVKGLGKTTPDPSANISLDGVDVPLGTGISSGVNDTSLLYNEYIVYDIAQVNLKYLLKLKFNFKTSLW
Experimental: Recombinant full length 6HIS tagged PARP1 protein was diluted to 6 nM with 50 mM Tris pH 8, 0.001% Triton X100, 10 mM MgCl2, 150 mM NaCl and incubated for four hours with an equivalent volume of 2 nM fluorescent probe diluted with 50 mM Tris pH 8, 0.001% Triton X100, 10 mM MgCl2, 150 mM NaCl. The final DMSO concentration of the probe was kept below 1% (v/v).
Fluorescence anisotropy of the probe when bound to the proteins was measured using a BMG Pherastar FSX® in the presence of test compounds or solvent control and the effect on anisotropy determined. % inhibition values for different test compound concentrations were calculated and fitted to a four parameter logistic plot in order to determine the IC50 value. Where necessary, the compound K, can be determined from the IC50 value using a Munson Rodbard equation defined in Anal Biochem. 1980 Sep.

Chain of PARP2 (Q9UGN5 whole entry): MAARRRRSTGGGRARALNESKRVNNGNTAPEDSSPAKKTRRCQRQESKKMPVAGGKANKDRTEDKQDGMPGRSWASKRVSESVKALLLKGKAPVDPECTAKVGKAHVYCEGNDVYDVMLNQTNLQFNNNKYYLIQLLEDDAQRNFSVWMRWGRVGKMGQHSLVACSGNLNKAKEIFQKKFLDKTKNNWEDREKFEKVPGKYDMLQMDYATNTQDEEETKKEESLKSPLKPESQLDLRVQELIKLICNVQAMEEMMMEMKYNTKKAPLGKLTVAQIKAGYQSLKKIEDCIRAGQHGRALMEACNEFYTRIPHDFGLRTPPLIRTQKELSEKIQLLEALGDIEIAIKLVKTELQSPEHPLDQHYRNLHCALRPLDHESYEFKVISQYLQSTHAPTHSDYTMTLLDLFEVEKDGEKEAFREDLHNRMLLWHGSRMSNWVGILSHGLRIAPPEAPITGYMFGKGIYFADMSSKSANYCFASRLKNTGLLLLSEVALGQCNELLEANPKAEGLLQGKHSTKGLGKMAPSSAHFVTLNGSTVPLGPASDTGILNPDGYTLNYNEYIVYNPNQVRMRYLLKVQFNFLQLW

SMILES	IC50 (PARP2) [nM]	IC50 (PARP1) [nM]
CNC(=O)c1ccc(N2CCN(Cc3ccc4nc(C)c(=O)[nH]c4c3C)CC2)cn1 [Example 2, 5-[4-[(2,5-dimethyl-3-oxo-4H-quinoxalin-6-yl)methyl]piperazin-1-yl]-N-methyl-pyridine-2-carboxamide]	15000	11
CCc1nc2ccc(CN3CCN(c4ccc(C(=O)NC)nc4)CC3)c(Cl)c2[nH]c1=O [Example 10, 5-[4-[(5-chloro-2-ethyl-3-oxo-4H-quinoxalin-6-yl)methyl]piperazin-1-yl]-N-methyl-pyridine-2-carboxamide]	–	13
CNC(=O)c1ccc(N2CCN(Cc3ccc4nc(C)c(=O)[nH]c4c3Cl)CC2)cn1 [Example 16, 5-[4-[(5-chloro-2-methyl-3-oxo-4H-quinoxalin-6-yl)methyl]piperazin-1-yl]-N-methyl-pyridine-2-carboxamide]	–	10
Cc1nc2ccc(CN3CCN(c4ccc(C(N)=O)nc4F)CC3)c(F)c2[nH]c1=O [Example 22, 6-fluoro-5-[4-[(5-fluoro-2-methyl-3-oxo-4H-quinoxalin-6-yl)methyl]piperazin-1-yl]pyridine-2-carboxamide]	87000	6
CNC(=O)c1ccc(N2CCN(Cc3ccc4ncc(=O)[nH]c4c3F)CC2)cn1 [Example 33, 5-[4-[(5-fluoro-3-oxo-4H-quinoxalin-6-yl)methyl]piperazin-1-yl]-N-methyl-pyridine-2-carboxamide]	> 100000	167
CNC(=O)c1ccc(N2CCN(Cc3ccc4ncc(=O)[nH]c4c3F)CC2)c(C)n1 [Example 35, 5-[4-[(5-fluoro-3-oxo-4H-quinoxalin-6-yl)methyl]piperazin-1-yl]-N,6-dimethyl-pyridine-2-carboxamide]	> 100000	30
CNC(=O)c1ccc(N2CCN(Cc3ccc4ncc(=O)[nH]c4c3F)CC2)c(F)n1 [Example 36, 6-fluoro-5-[4-[(5-fluoro-3-oxo-4H-quinoxalin-6-yl)methyl]piperazin-1-yl]-N-methyl-pyridine-2-carboxamide]	> 100000	22
CCc1nc2ccc(CN3CCN(c4ccc(C(=O)NC)nc4)CC3)c(C)c2[nH]c1=O [Example 44, 5-[4-[(2-ethyl-5-methyl-3-oxo-4H-quinoxalin-6-yl)methyl]piperazin-1-yl]-N-methyl-pyridine-2-carboxamide]	> 100000	128
CCNC(=O)c1ccc(N2CCN(Cc3ccc4nc(C)c(=O)[nH]c4c3F)CC2)c(C)n1 [Example 46, N-ethyl-5-[4-[(5-fluoro-2-methyl-3-oxo-4H-quinoxalin-6-yl)methyl]piperazin-1-yl]-6-methyl-pyridine-2-carboxamide]	> 100000	10
CNC(=O)c1ccc(N2CCN(Cc3ccc4nc(C(F)(F)F)c(=O)[nH]c4c3F)CC2)cn1 [Example 50, 5-[4-[[5-fluoro-3-oxo-2-(trifluoromethyl)-4H-quinoxalin-6-yl]methyl]piperazin-1-yl]-N-methyl-pyridine-2-carboxamide]	35000	60
CNC(=O)c1ccc(N2CCN(Cc3ccc4nc(C(C)C)c(=O)[nH]c4c3F)CC2)c(F)n1 [Example 51, 6-fluoro-5-[4-[(5-fluoro-2-isopropyl-3-oxo-4H-quinoxalin-6-yl)methyl]piperazin-1-yl]-N-methyl-pyridine-2-carboxamide]	1200	6
CNC(=O)c1ccc(N2CCN(Cc3ccc4nc(C(C)C)c(=O)[nH]c4c3F)CC2)c(C)n1 [Example 52, 5-[4-[(5-fluoro-2-isopropyl-3-oxo-4H-quinoxalin-6-yl)methyl]piperazin-1-yl]-N,6-dimethyl-pyridine-2-carboxamide]	3800	85
CNC(=O)c1ccc(N2CCN(Cc3ccc4nc(C(C)C)c(=O)[nH]c4c3F)CC2)cn1 [Example 53, 5-[4-[(5-fluoro-2-isopropyl-3-oxo-4H-quinoxalin-6-yl)methyl]piperazin-1-yl]-N-methyl-pyridine-2-carboxamide]	> 100000	26
CNC(=O)c1ccc(N2CCN(Cc3ccc4nc(C5CC5)c(=O)[nH]c4c3F)CC2)c(F)n1 [Example 54, 5-[4-[(2-cyclopropyl-5-fluoro-3-oxo-4H-quinoxalin-6-yl)methyl]piperazin-1-yl]-6-fluoro-N-methyl-pyridine-2-carboxamide]	> 100000	111
CNC(=O)c1ccc(N2CCN(Cc3ccc4nc(C5CC5)c(=O)[nH]c4c3F)CC2)cn1 [Example 56, 5-[4-[(2-cyclopropyl-5-fluoro-3-oxo-4H-quinoxalin-6-yl)methyl]piperazin-1-yl]-N-methyl-pyridine-2-carboxamide]	> 100000	8
CNC(=O)c1ccc(N2CCN(Cc3ccc4nc(OC)c(=O)[nH]c4c3C)CC2)c(C)n1 [Example 57, 5-[4-[(2-methoxy-5-methyl-3-oxo-4H-quinoxalin-6-yl)methyl]piperazin-1-yl]-N,6-dimethyl-pyridine-2-carboxamide]	> 100000	11
CNC(=O)c1ccc(N2CCN(Cc3ccc4nc(OC)c(=O)[nH]c4c3C)CC2)c(C(F)F)n1 [Example 59, 6-(difluoromethyl)-5-[4-[(2-methoxy-5-methyl-3-oxo-4H-quinoxalin-6-yl)methyl]piperazin-1-yl]-N-methyl-pyridine-2-carboxamide]	2100	6
CNC(=O)c1ccc(N2CCN(Cc3ccc4nc(C)c(=O)[nH]c4c3C)CC2)c(C(F)F)n1 [Example 60, 6-(difluoromethyl)-5-[4-[(2,5-dimethyl-3-oxo-4H-quinoxalin-6-yl)methyl]piperazin-1-yl]-N-methyl-pyridine-2-carboxamide]	> 100000	23

Next, values leading:

IC50 (PARP2) [nM]	IC50 (PARP1) [nM]	SMILES
> 63000	5	Cc1nc2ccc(CN3CCN(c4ccc(C(N)=O)nc4F)CC3)c(C)c2[nH]c1=O [Example 5, 5-[4-[(2,5-dimethyl-3-oxo-4H-quinoxalin-6-yl)methyl]piperazin-1-yl]-6-fluoro-pyridine-2-carboxamide]
> 100000	4	Cc1nc(C(N)=O)ccc1N1CCN(Cc2ccc3nc(C)c(=O)[nH]c3c2F)CC1 [Example 6, 5-[4-[(5-fluoro-2-methyl-3-oxo-4H-quinoxalin-6-yl)methyl]piperazin-1-yl]-6-methyl-pyridine-2-carboxamide]
58000	6	Cc1nc(C(N)=O)ccc1N1CCN(Cc2ccc3nc(C)c(=O)[nH]c3c2C)CC1 [Example 7, 5-[4-[(2,5-dimethyl-3-oxo-4H-quinoxalin-6-yl)methyl]piperazin-1-yl]-6-methyl-pyridine-2-carboxamide]
–	4	CCc1nc2ccc(CN3CCN(c4ccc(C(=O)NC)nc4Cl)CC3)c(Cl)c2[nH]c1=O [Example 8, 6-chloro-5-[4-[(5-chloro-2-ethyl-3-oxo-4H-quinoxalin-6-yl)methyl]piperazin-1-yl]-N-methyl-pyridine-2-carboxamide]
–	3	CCc1nc2ccc(CN3CCN(c4ccc(C(=O)NC)nc4C)CC3)c(Cl)c2[nH]c1=O [Example 11, 5-[4-[(5-chloro-2-ethyl-3-oxo-4H-quinoxalin-6-yl)methyl]piperazin-1-yl]-N,6-dimethyl-pyridine-2-carboxamide]
–	6	CNC(=O)c1ccc(N2CCN(Cc3ccc4nc(C)c(=O)[nH]c4c3Cl)CC2)c(F)n1 [Example 17, 5-[4-[(5-chloro-2-methyl-3-oxo-4H-quinoxalin-6-yl)methyl]piperazin-1-yl]-6-fluoro-N-methyl-pyridine-2-carboxamide]
> 100000	5	CCc1nc2ccc(CN3CCN(c4ccc(C(N)=O)nc4)CC3)c(F)c2[nH]c1=O [Example 25, 5-[4-[(2-ethyl-5-fluoro-3-oxo-4H-quinoxalin-6-yl)methyl]piperazin-1-yl]pyridine-2-carboxamide]
88000	5	CCc1nc2ccc(CN3CCN(c4ccc(C(N)=O)nc4C)CC3)c(F)c2[nH]c1=O [Example 26, 5-[4-[(2-ethyl-5-fluoro-3-oxo-4H-quinoxalin-6-yl)methyl]piperazin-1-yl]-6-methyl-pyridine-2-carboxamide]
> 88000	5	CCc1nc2ccc(CN3CCN(c4ccc(C(=O)NC)nc4C)CC3)c(C)c2[nH]c1=O [Example 42, 5-[4-[(2-ethyl-5-methyl-3-oxo-4H-quinoxalin-6-yl)methyl]piperazin-1-yl]-N,6-dimethyl-pyridine-2-carboxamide]
> 100000	5	CCc1nc2ccc(CN3CCN(c4ccc(C(=O)NC)nc4F)CC3)c(C)c2[nH]c1=O [Example 43, 5-[4-[(2-ethyl-5-methyl-3-oxo-4H-quinoxalin-6-yl)methyl]piperazin-1-yl]-6-fluoro-N-methyl-pyridine-2-carboxamide]
> 100000	5	CNC(=O)c1ccc(N2CCN(Cc3ccc4nc(C5CC5)c(=O)[nH]c4c3F)CC2)c(C)n1 [Example 55, 5-[4-[(2-cyclopropyl-5-fluoro-3-oxo-4H-quinoxalin-6-yl)methyl]piperazin-1-yl]-N,6-dimethyl-pyridine-2-carboxamide]
